Source: the supplement of paper PMC11208160

assay: recombinant UMI read abundance after kanamycin selection (control-corrected) (log10(CPM+1)); higher = more efficient recombination; extreme values may be limits of the assay; sequences stand for … in AGTGCAGAGAAAATCGGCCAGTTTTCTCTGCCTGCAGTCCGCATGCCGTGGGACCCCTTGGGTTCTAACCTGTTGCCTAGATTTATGCAGCGGACTGCCTTTCTCCCAAAGTGATAAACCGG…AGGTTGGTTTCACT; site = the 11-nt donor
Outline: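 After plating on IPTG (0.07 mM) plus kanamycin, or unselected, in two replicates, recombinant UMIs were PCR-amplified across the donor–target junction and sequenced. The cells were Escherichia coli co-electroporated with a UMI-tagged donor and donor-binding-loop pair library and a target plasmid with a fixed target and T7-inducible IS621 bridge recombinase. Values are log10(CPM+1), with CPM averaged over replicates and scaled by control-derived factors.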
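Also: IS621 bridge recombinase in Escherichia coli cells against a fixed T5 target plasmid.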

“ATGTGGACATGGACCGGTTTTCCCGGTAATCCGTATTTGAC (site ATGTGGACTGT)” and “ATGTGGGCATGGACCGGTTTTCCCGGTAATCCGTATTTGGC (site ATGTAGGCTGC)” are within 0.2 log units of each other in “recombinant UMI read abundance (log10)” value: 2.94 for the first, 2.78 for the second.

Going from “ATGTGGGCATGGACCGGTTTTCCCGGTAATCCGTATTTGGC (site ATGTCGGCTGC)” to “ATGTGGGCATGGACCGGTTTTCCCGGTAATCCGTATTTGGC (site ATGTGGGCTGC)”, the “recombinant UMI read abundance (log10)” value rises from 0 to 3.01.

Compared with “ATGTGGGCATGGACCGGTTTTCCCGGTAATCCGTATTTGGC (site ATGTTGGCTGC)”, “ATGTGTGCATGGACCGGTTTTCCCGGTAATCCGTATTTGAC (site ATGTGTGCTGT)” is higher in “recombinant UMI read abundance (log10)” value: 0.0921 for the first, 2.78 for the second.

First: ATGTTACCATGGACCGGTTTTCCCGGTAATCCGTATTTGGT (site ATGTTACCTAC)
Second: ATTACGGCATGGACCGGTTTTCCCGGTAATCCGTATTTGGA (site ATTACGGCTTC)
The “recombinant UMI read abundance (log10)” value of the first is lower: 0.0171 for the first, 0.269 for the second.

First: ATTACTTCATGGACCGGTTTTCCCGGTAATCCGTATTTGGG (site ATTACTTCTCC)
Second: ATTAGAACATGGACCGGTTTTCCCGGTAATCCGTATTTGGC (site ATTAGAACTGC)
The “recombinant UMI read abundance (log10)” value of the first is lower: 0.434 for the first, 1.83 for the second.

Going from “ATTAGAACATGGACCGGTTTTCCCGGTAATCCGTATTTGGC (site CTTAGAACTGC)” to “ATTAGAACATGGACCGGTTTTCCCGGTAATCCGTATTTGGC (site GTTAGAACTGC)”, the “recombinant UMI read abundance (log10)” value falls from 1.73 to 0.

First: ATTAGAACATGGACCGGTTTTCCCGGTAATCCGTATTTGGC (site TTTAGAACTGC)
Second: ATTAGTGCATGGACCGGTTTTCCCGGTAATCCGTATTTGGT (site AATAGTGCTAC)
The “recombinant UMI read abundance (log10)” value of the first is higher: 1.19 for the first, 0.125 for the second.

Compared with “ATTAGTGCATGGACCGGTTTTCCCGGTAATCCGTATTTGGT (site ACTAGTGCTAC)”, “ATTAGTGCATGGACCGGTTTTCCCGGTAATCCGTATTTGGT (site AGTAGTGCTAC)” is lower in “recombinant UMI read abundance (log10)” value: 0.675 for the first, 0.243 for the second.

First: ATTAGTGCATGGACCGGTTTTCCCGGTAATCCGTATTTGGT (site ATTAGTGCTAC)
Second: ATTCCGGCATGGACCGGTTTTCCCGGTAATCCGTATTTGCT (site ATTCCGGCTAG)
The “recombinant UMI read abundance (log10)” value of the first is higher: 1.05 for the first, 0.0043 for the second.

First: ATTCGAACATGGACCGGTTTTCCCGGTAATCCGTATTTGTT (site ATTCGAACTAA)
Second: ATTCGTGCATGGACCGGTTTTCCCGGTAATCCGTATTTGAT (site ATTCGTGCTAT)
The “recombinant UMI read abundance (log10)” value of the first is lower: 0.18 for the first, 0.866 for the second.

Going from “ATTCGTGCATGGACCGGTTTTCCCGGTAATCCGTATTTGTA (site ATTCGTGCTTA)” to “ATTCGTGCATGGACCGGTTTTCCCGGTAATCCGTATTTGTG (site ATTCGTGCTCA)”, the “recombinant UMI read abundance (log10)” value falls from 0.657 to 0.309.

Compared with “ATTCTTACATGGACCGGTTTTCCCGGTAATCCGTATTTGGT (site ATTCTTACTAC)”, “ATTGTATCATGGACCGGTTTTCCCGGTAATCCGTATTTGAG (site ATTGTATCTCT)” is higher in “recombinant UMI read abundance (log10)” value: 0.37 for the first, 1.59 for the second.

Going from “ATTTAAACATGGACCGGTTTTCCCGGTAATCCGTATTTGAC (site ATTTAAACTGT)” to “ATTTAGACATGGACCGGTTTTCCCGGTAATCCGTATTTGGT (site ATTAAGACTAC)”, the “recombinant UMI read abundance (log10)” value falls from 1.18 to 0.513.

Going from “ATTTAGACATGGACCGGTTTTCCCGGTAATCCGTATTTGGT (site ATTCAGACTAC)” to “ATTTAGACATGGACCGGTTTTCCCGGTAATCCGTATTTGGT (site ATTGAGACTAC)”, the “recombinant UMI read abundance (log10)” value falls from 0.475 to 0.0177.

Going from “ATTTAGACATGGACCGGTTTTCCCGGTAATCCGTATTTGGT (site ATTTAGACTAC)” to “ATTTAGGCATGGACCGGTTTTCCCGGTAATCCGTATTTGGC (site ATATAGGCTGC)”, the “recombinant UMI read abundance (log10)” value rises from 0.955 to 1.64.

Compared with “ATTTAGGCATGGACCGGTTTTCCCGGTAATCCGTATTTGGC (site ATCTAGGCTGC)”, “ATTTAGGCATGGACCGGTTTTCCCGGTAATCCGTATTTGGC (site ATGTAGGCTGC)” is lower in “recombinant UMI read abundance (log10)” value: 0.928 for the first, 0.42 for the second.

Compared with “ATTTAGGCATGGACCGGTTTTCCCGGTAATCCGTATTTGGC (site ATTTAGGCTGC)”, “ATTTATTCATGGACCGGTTTTCCCGGTAATCCGTATTTGAG (site ATTTATTCTCT)” is lower in “recombinant UMI read abundance (log10)” value: 1.93 for the first, 1.61 for the second.

“ATTTCACCATGGACCGGTTTTCCCGGTAATCCGTATTTGGC (site ATTTCACCTGC)” and “ATTTCTACATGGACCGGTTTTCCCGGTAATCCGTATTTGTC (site ATTTCTACTGA)” are within 0.2 log units of each other in “recombinant UMI read abundance (log10)” value: 0 for the first, 0.00552 for the second.

Going from “ATTTGAGCATGGACCGGTTTTCCCGGTAATCCGTATTTGCG (site ATTTGAGCTCG)” to “ATTTGTTCATGGACCGGTTTTCCCGGTAATCCGTATTTGGA (site ATTTGTTCTTC)”, the “recombinant UMI read abundance (log10)” value rises from 0.336 to 1.4.

“CAAAAGCCATGGACCGGTTTTCCCGGTAATCCGTATTTGTC (site CAAAAGCCTGA)” and “CAAAATACATGGACCGGTTTTCCCGGTAATCCGTATTTGGC (site CAAAATACTGC)” are the same in “recombinant UMI read abundance (log10)” value: 0 for the first, 0 for the second.

First: CAAACACCATGGACCGGTTTTCCCGGTAATCCGTATTTGAC (site CAAACACCTGT)
Second: CAAACGACATGGACCGGTTTTCCCGGTAATCCGTATTTGTT (site CAAACGACTAA)
The “recombinant UMI read abundance (log10)” value of the first is lower: 0.00914 for the first, 1.41 for the second.

Compared with “CAAAGCTCATGGACCGGTTTTCCCGGTAATCCGTATTTGAA (site CAAAGCTCTTT)”, “CAAAGCTCATGGACCGGTTTTCCCGGTAATCCGTATTTGAA (site CAACGCTCTTT)” is lower in “recombinant UMI read abundance (log10)” value: 3.18 for the first, 0.0122 for the second.

Compared with “CAAAGCTCATGGACCGGTTTTCCCGGTAATCCGTATTTGAA (site CAAGGCTCTTT)”, “CAAAGCTCATGGACCGGTTTTCCCGGTAATCCGTATTTGAA (site CAATGCTCTTT)” is lower in “recombinant UMI read abundance (log10)” value: 0.579 for the first, 0.0194 for the second.

Going from “CAAATACCATGGACCGGTTTTCCCGGTAATCCGTATTTGAC (site CAAATACCTGT)” to “CAAATCCCATGGACCGGTTTTCCCGGTAATCCGTATTTGGA (site CAAATCCCTTC)”, the “recombinant UMI read abundance (log10)” value rises from 0 to 0.334.

Going from “CAAATCTCATGGACCGGTTTTCCCGGTAATCCGTATTTGCA (site CAAATCTCTTG)” to “CAACAACCATGGACCGGTTTTCCCGGTAATCCGTATTTGAA (site CAACAACCTTT)”, the “recombinant UMI read abundance (log10)” value falls from 1.85 to 0.102.

Compared with “CAACACACATGGACCGGTTTTCCCGGTAATCCGTATTTGTG (site CAACACACTCA)”, “CAACGCTCATGGACCGGTTTTCCCGGTAATCCGTATTTGAA (site CAAAGCTCTTT)” is lower in “recombinant UMI read abundance (log10)” value: 0.834 for the first, 0.00291 for the second.

Going from “CAACGCTCATGGACCGGTTTTCCCGGTAATCCGTATTTGAA (site CAACGCTCTTT)” to “CAACGCTCATGGACCGGTTTTCCCGGTAATCCGTATTTGAA (site CAAGGCTCTTT)”, the “recombinant UMI read abundance (log10)” value falls from 2.06 to 0.00387.

First: CAACGCTCATGGACCGGTTTTCCCGGTAATCCGTATTTGAA (site CAATGCTCTTT)
Second: CAACTCCCATGGACCGGTTTTCCCGGTAATCCGTATTTGCT (site CAAATCCCTAG)
The “recombinant UMI read abundance (log10)” value of the first is lower: 0.0343 for the first, 0.818 for the second.

Compared with “CAACTCCCATGGACCGGTTTTCCCGGTAATCCGTATTTGCT (site CAACTCCCTAG)”, “CAACTCCCATGGACCGGTTTTCCCGGTAATCCGTATTTGCT (site CAAGTCCCTAG)” is lower in “recombinant UMI read abundance (log10)” value: 1.86 for the first, 0.00625 for the second.

“CAACTCCCATGGACCGGTTTTCCCGGTAATCCGTATTTGCT (site CAATTCCCTAG)” and “CAACTTTCATGGACCGGTTTTCCCGGTAATCCGTATTTGGT (site CAACTTTCTAC)” are within 0.2 log units of each other in “recombinant UMI read abundance (log10)” value: 0.765 for the first, 0.82 for the second.

Going from “CAAGATTCATGGACCGGTTTTCCCGGTAATCCGTATTTGTT (site AAAGATTCTAA)” to “CAAGATTCATGGACCGGTTTTCCCGGTAATCCGTATTTGTT (site CAAGATTCTAA)”, the “recombinant UMI read abundance (log10)” value rises from 0 to 3.22.

Going from “CAAGATTCATGGACCGGTTTTCCCGGTAATCCGTATTTGTT (site GAAGATTCTAA)” to “CAAGATTCATGGACCGGTTTTCCCGGTAATCCGTATTTGTT (site TAAGATTCTAA)”, the “recombinant UMI read abundance (log10)” value rises from 0 to 0.464.

“CAAGCGCCATGGACCGGTTTTCCCGGTAATCCGTATTTGCG (site CAAGCGCCTCA)” and “CAAGCGCCATGGACCGGTTTTCCCGGTAATCCGTATTTGCG (site CAAGCGCCTCC)” are within 0.2 log units of each other in “recombinant UMI read abundance (log10)” value: 0.0343 for the first, 0.0171 for the second.

First: CAAGCGCCATGGACCGGTTTTCCCGGTAATCCGTATTTGCG (site CAAGCGCCTCG)
Second: CAAGCGCCATGGACCGGTTTTCCCGGTAATCCGTATTTGCG (site CAAGCGCCTCT)
The “recombinant UMI read abundance (log10)” value of the first is higher: 2.05 for the first, 0.00392 for the second.

“CAAGCGCCATGGACCGGTTTTCCCGGTAATCCGTATTTGTC (site CAAGCGCCTAA)” and “CAAGCGCCATGGACCGGTTTTCCCGGTAATCCGTATTTGTC (site CAAGCGCCTCA)” are within 0.2 log units of each other in “recombinant UMI read abundance (log10)” value: 0.486 for the first, 0.42 for the second.

Going from “CAAGCGCCATGGACCGGTTTTCCCGGTAATCCGTATTTGTC (site CAAGCGCCTGA)” to “CAAGCGCCATGGACCGGTTTTCCCGGTAATCCGTATTTGTC (site CAAGCGCCTTA)”, the “recombinant UMI read abundance (log10)” value falls from 2.51 to 0.529.

Going from “CAAGCGGCATGGACCGGTTTTCCCGGTAATCCGTATTTGTG (site CAAGCGACTCA)” to “CAAGCGGCATGGACCGGTTTTCCCGGTAATCCGTATTTGTG (site CAAGCGCCTCA)”, the “recombinant UMI read abundance (log10)” value falls from 1.37 to 0.00533.

In the case of “CAAGCGGCATGGACCGGTTTTCCCGGTAATCCGTATTTGTG (site CAAGCGGCTCA)”, the “recombinant UMI read abundance (log10)” value is reported as 0.904.
